Literature values in US20120083476A1, “HETEROARYL-SUBSTITUTED SPIROCYCLIC DIAMINE UREA MODULATORS OF FATTY ACID AMIDE HYDROLASE” (Janssen Pharmaceutica NV, priority 2009, published 2012).

Experiments:
rats [1] = settings: cited from earlier work
rats [2] = settings: rat; Kathuria 2003; cited from earlier work
FAAH = biological target: T1, FAAH (Homo sapiens, UniProt O00519); settings: WO 04/033652; cited from earlier work
T1 sequence (O00519 1-579): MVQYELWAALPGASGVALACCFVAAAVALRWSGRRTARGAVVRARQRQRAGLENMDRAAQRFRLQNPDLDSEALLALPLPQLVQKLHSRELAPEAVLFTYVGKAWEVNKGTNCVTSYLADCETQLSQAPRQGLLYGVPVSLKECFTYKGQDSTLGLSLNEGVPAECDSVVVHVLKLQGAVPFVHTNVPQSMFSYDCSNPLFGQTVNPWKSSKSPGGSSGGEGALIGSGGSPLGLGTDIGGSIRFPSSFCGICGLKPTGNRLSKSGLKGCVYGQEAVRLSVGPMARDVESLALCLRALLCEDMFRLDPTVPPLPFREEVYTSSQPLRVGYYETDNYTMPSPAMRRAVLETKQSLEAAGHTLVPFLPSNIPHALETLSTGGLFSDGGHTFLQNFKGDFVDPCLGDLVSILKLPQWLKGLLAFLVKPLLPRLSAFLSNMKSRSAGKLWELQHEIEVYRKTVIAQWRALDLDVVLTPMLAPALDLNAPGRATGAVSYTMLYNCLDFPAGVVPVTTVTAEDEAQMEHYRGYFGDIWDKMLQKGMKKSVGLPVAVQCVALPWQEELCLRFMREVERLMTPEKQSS

rats [3] = settings: WO 04/033652; cited from earlier work
CREAE mice = settings: Baker 2001; cited from earlier work
rats [4] = settings: WO 02/087569; cited from earlier work
rats [5] = settings: WO 02/087569; cited from earlier work; remark: listed apart in the source

NC(=O)c1cccc(-c2cccc(OC(=O)NC3CCCCC3)c2)c1 [URB-597]
analgesia in hot plate test (rats [1]): analgesic efficacy
analgesic efficacy in formalin test (rats [2]): analgesic efficacy

O=C(CCCCCCc1ccccc1)c1ncc(-c2ccccn2)o1 [OL-135]
analgesia in hot plate test (rats [1]): analgesic activity
inhibition of FAAH (FAAH): potent inhibitor
analgesic activity in tail emersion test (rats [3]): analgesic activity

CCCCCCCCCCCCCCCCS(=O)(=O)F [AM374]
spasticity in CREAE mice (CREAE mice): significantly reduce spasticity

Cc1nc(-c2ccccc2)c(-c2ccccc2)n1CCCCCCNC(=O)Oc1ccccc1F [BMS-1]
analgesic effect in Chung spinal nerve ligation model (rats [4]): analgesic effect
analgesic effect in Hargraves test of acute thermal nociception (rats [5]): analgesic effect
